Patent US8153615B2, “Synthesis of glycerolipid carbamates and dicarbamates and their use as an antitumor compounds” (priority 2005, dated 2012)
Where “and” joins values, the source holds several entries; their conditions need not be identical. Equal entries are not always repeated.

Assays:
BT549 cells = experiment: Antiproliferative evaluation, CyQuant assay, BT549; type: cell-based, human; conditions: exponentially growing cells, 48 h incubation, read-out: IC50, growth inhibition, BT549, breast
Description: (§1) FIG. 2 is a graphical depiction of the results of an antiproliferative evaluation of compound I against the following cancer cell lines: DU145, PC3, BT549, HeLa, MDA-MB-231, A549, and MCF-7. Cells growing exponentially in 48-well plates were incubated with different concentrations of compound I for 48 h. The increases in cell numbers were determined by the CyQuant assay and are expressed as a percentage of the increase in control wells with the vehicle (0.1% ethanol). The results are the average+SD from six different wells.
as §1, with “FIG. 3” for “FIG. 2”, “compound II” for “compound I”, “ethanol). […]” for “ethanol). The results are the average+SD from six different wells.”
(§2) FIG. 4 is a graphical depiction of the results of an antiproliferative evaluation of compound III against the following cancer cell lines: DU145, PC3, BT549, HeLa, MDA-MB-231, A549, and MCF-7. […] The increases in cell numbers were determined by the CyQuant assay and are expressed as a percentage of the increase in control wells with the vehicle (0.1% ethanol). […]
as §2, with “FIG. 5” for “FIG. 4”, “compound IV” for “compound III”
as §2, with “FIG. 6” for “FIG. 4”, “compound V” for “compound III”

HeLa cells = experiment: Antiproliferative evaluation, CyQuant assay, HeLa; type: cell-based, human; conditions: exponentially growing cells, 48 h incubation, read-out: IC50, growth inhibition, HeLa, cervix
Description: as §1
as §1, with “FIG. 3” for “FIG. 2”, “compound II” for “compound I”, “ethanol). […]” for “ethanol). The results are the average+SD from six different wells.”
as §2
as §2, with “FIG. 5” for “FIG. 4”, “compound IV” for “compound III”
as §2, with “FIG. 6” for “FIG. 4”, “compound V” for “compound III”

MCF-7 cells = experiment: Antiproliferative evaluation, CyQuant assay, MCF-7; type: cell-based, human; conditions: exponentially growing cells, 48 h incubation, read-out: IC50, growth inhibition, MCF-7, breast
Description: as §1
as §1, with “FIG. 3” for “FIG. 2”, “compound II” for “compound I”
as §1, with “FIG. 4” for “FIG. 2”, “compound III” for “compound I”
as §1, with “FIG. 5” for “FIG. 2”, “compound IV” for “compound I”
as §1, with “FIG. 6” for “FIG. 2”, “compound V” for “compound I”, “wells. […]” for “wells.”

DU145 cells [1] = experiment: Antiproliferative evaluation, CyQuant assay, DU145; type: cell-based, human; conditions: exponentially growing cells, 48 h incubation, read-out: IC50, growth inhibition, DU145, prostate
Description: as §1
as §1, with “FIG. 3” for “FIG. 2”, “compound II” for “compound I”
as §1, with “FIG. 4” for “FIG. 2”, “compound III” for “compound I”
as §1, with “FIG. 5” for “FIG. 2”, “compound IV” for “compound I”
as §1, with “FIG. 6” for “FIG. 2”, “compound V” for “compound I”
(§3) We screened the compounds against a panel of human cancer cell lines derived from a number of tissues. […]

PC3 cells = experiment: Antiproliferative evaluation, CyQuant assay, PC3; type: cell-based, human; conditions: exponentially growing cells, 48 h incubation, read-out: IC50, growth inhibition, PC3, prostate
Description: as §1
as §1, with “FIG. 3” for “FIG. 2”, “compound II” for “compound I”
as §1, with “FIG. 4” for “FIG. 2”, “compound III” for “compound I”
as §1, with “FIG. 5” for “FIG. 2”, “compound IV” for “compound I”
as §1, with “FIG. 6” for “FIG. 2”, “compound V” for “compound I”
as §3

MDA-MB-231 cells = experiment: Antiproliferative evaluation, CyQuant assay, MDA-MB-231; type: cell-based, human; conditions: exponentially growing cells, 48 h incubation, read-out: IC50, growth inhibition, MDA-MB-231, breast
Description: as §1
as §1, with “FIG. 3” for “FIG. 2”, “compound II” for “compound I”, “ethanol). […]” for “ethanol). The results are the average+SD from six different wells.”
as §2
as §2, with “FIG. 5” for “FIG. 4”, “compound IV” for “compound III”
as §2, with “FIG. 6” for “FIG. 4”, “compound V” for “compound III”

A549 cells = experiment: Antiproliferative evaluation, CyQuant assay, A549; type: cell-based, human; conditions: exponentially growing cells, 48 h incubation, read-out: IC50, growth inhibition, A549, lung
Description: as §1
as §1, with “FIG. 3” for “FIG. 2”, “compound II” for “compound I”
as §1, with “FIG. 4” for “FIG. 2”, “compound III” for “compound I”
as §1, with “FIG. 5” for “FIG. 2”, “compound IV” for “compound I”
as §1, with “FIG. 6” for “FIG. 2”, “compound V” for “compound I”, “wells. […]” for “wells.”

[2] = system: prostate cancer cells (DU145, PC3) relative to other cancer cell lines; experiment: Prostate cancer cell selectivity across the panel of human cancer cell lines; type: cell-based; conditions: prostate lines versus other cancer cell lines, 48 h
Excerpt: (§4) We screened the compounds against a panel of human cancer cell lines derived from a number of tissues. These were breast (MCF-7, BT549, SKBr3, MDA-MB-231), lung (A549), cervix (HeLa), and prostate (DU145, PC3) cancer cell lines. […] In some cases, the IC50 values were much lower than values reported for ET-18-OCH3, indicative of a greater degree of potency of these new compounds. The most striking observation is that the greatest inhibition of cell growth was found when the two prostate cell lines, DU145 and PC3, were treated with these compounds. […] Because hormone-insensitive prostate cancer cells are highly sensitive to the active compounds described herein, (compounds I, II, and III), we postulate that it may be possible to selectively kill prostate cancer cells with low concentrations without harming other cells in the body. The prostate selectivity observed with compound I was also observed with compounds II and III (Table 1 and FIGS. 3 and 4) and distinguishes these compounds from other antitumor compounds.

SK-N-MC cells = conditions: read-out: IC50, antiproliferative effect, SK-N-MC (neuronal); proliferating cells, 0-20 μM, 48 h, CyQuant assay
Description: (§5) Specifically, proliferating cells in 48-well plates were incubated with 0-20 μM of the compound for 48 hours. The cell numbers present were determined by the CyQuant™ assay (Invitrogen), and the increase in numbers were expressed relative to the controls receiving only the vehicle (0.1% ethanol).
(§6) Proliferating cells in 48-well plates were incubated with 0-20 μM of the compound for 48 h. The cell numbers present were determined by the CyQuant™ assay (Invitrogen), and the increase in numbers were expressed relative to the controls receiving only the vehicle (0.1% ethanol).

HepG2 cells = conditions: read-out: IC50, antiproliferative effect, HepG2 (liver); proliferating cells, 0-20 μM, 48 h, CyQuant assay
Description: as §5, §6

SK-N-SH cells = conditions: read-out: IC50, antiproliferative effect, SK-N-SH (neuronal); proliferating cells, 0-20 μM, 48 h, CyQuant assay
Description: as §5, §6

DU145 cells [3] = experiment: Toxicity (loss of viability) to DU145 cells; type: cell-based, human
Excerpt: as §4

Row | Compound | IC50 (BT549 cells) [µM] | IC50 (HeLa cells) [µM] | IC50 (MCF-7 cells) [µM] | IC50 (DU145 cells [1]) | IC50 (PC3 cells) [µM] | IC50 (MDA-MB-231 cells) [µM] | IC50 (A549 cells) [µM] | prostate cancer cell selectivity [2] | IC50 (SK-N-MC cells) [µM] | IC50 (HepG2 cells) [µM] | IC50 (SK-N-SH cells) [µM] | concentration toxic to the cells (loss of viability) (DU145 cells [3]) [µM]
1 | CCCCCCCCCCCCCCCCOC[C@H](CCP(=O)([O-])OCC[N+](C)(C)C)OC(=O)NC [Compound II, 2′-(trimethylammonio)ethyl 4-hexadecyloxy-3(S)—N-methylcarbamoyl-1-butane-phosphonate] | 6.8 | 7.9 | 10.1 | 2.1 µM | 2.5 | 6.1 | > 20 | – | – | – | – | –
2 | 1-O-(7-N, N-dimethylamino-3-pentadecanoyl-1-napthyl)-2-O-methyl-sn-glycero-3-phosphocholine | – | – | > 20 | 3.5 µM | 1.9 | – | > 20 | highly selective for prostate cancer cells | > 20 | > 20 | < 20 | –
3 | CCCCCCCCCCCCCCCCOC[C@@H](CCP(=O)([O-])OCC[N+](C)(C)C)OC(=O)NC [Compound I, 2′-(trimethylammonio)ethyl 4-hexadecyloxy-3(R)—N-methylcarbamoyl-1-butanephosphonate] | 4.4 | 3.3 | 4 | 1 µM and 1.2 µM | 1.2 | 3.7 | 10.7 | – | – | – | – | 2.5
4 | CCCCCCCCCCCCCCCCOC[C@@H](COP(=O)([O-])OCC[N+](C)(C)C)NC(=O)OC [Compound III, 2′-(trimethylammonio)ethyl 2(S)—(N-methoxycarbonylamido)-3-hexadecyloxypropanephosphate] | 13.4 | 19.3 | 9.1 | 2.4 µM | 1.9 | 10.5 | > 20 | greatest prostate cancer cell selectivity | – | – | – | –
